Bridge positions count the residues as written; N and C are the ends. Square brackets hold non-standard residues; d marks the D form. Peptide text beside a SMILES is read from it. Phe(3,4-Cl2) = N[C@@H](Cc1ccc(Cl)c(Cl)c1)C(=O)O; Bip = N[C@@H](Cc1ccc(-c2ccccc2)cc1)C(=O)O; Phe(3-F) = N[C@@H](Cc1cccc(F)c1)C(=O)O; NMeF = CN[C@@H](Cc1ccccc1)C(=O)O; NMeA = CN[C@@H](C)C(=O)O

As a reminder, the IC50 is the point on the concentration scale where inhibition reaches its midpoint. Read a low IC50 as greater potency.

human PCSK9, sequence (Q8NBP7 153-692): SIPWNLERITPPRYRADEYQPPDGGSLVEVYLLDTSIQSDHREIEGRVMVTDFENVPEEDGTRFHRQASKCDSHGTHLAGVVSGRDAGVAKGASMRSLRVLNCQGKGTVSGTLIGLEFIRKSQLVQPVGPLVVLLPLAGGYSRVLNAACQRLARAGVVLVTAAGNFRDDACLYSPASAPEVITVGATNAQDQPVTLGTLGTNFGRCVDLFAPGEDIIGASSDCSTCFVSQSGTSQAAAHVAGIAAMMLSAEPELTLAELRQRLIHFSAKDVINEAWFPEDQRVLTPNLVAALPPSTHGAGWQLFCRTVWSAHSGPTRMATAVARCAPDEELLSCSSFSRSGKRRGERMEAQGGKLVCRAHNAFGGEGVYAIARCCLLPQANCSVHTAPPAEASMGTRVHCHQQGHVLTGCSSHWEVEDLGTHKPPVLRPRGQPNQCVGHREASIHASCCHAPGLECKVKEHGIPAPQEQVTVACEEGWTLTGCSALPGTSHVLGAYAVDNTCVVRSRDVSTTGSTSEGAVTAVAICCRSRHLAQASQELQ
human PCSK9, sequence (Q8NBP7 31-152 partner limits assumed): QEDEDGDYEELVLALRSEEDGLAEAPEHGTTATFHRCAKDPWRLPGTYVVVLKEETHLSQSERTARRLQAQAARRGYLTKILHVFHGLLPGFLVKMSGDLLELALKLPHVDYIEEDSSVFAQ

In the first test the target is human PCSK9 (Homo sapiens, UniProt Q8NBP7). Kind of test: PCSK9 ligand binding assay (TR-FRET): interference with binding of human PCSK9 to human LDLR. The conditions noted are these: PCSK9 FRET assay, efficacy (Amax); 0% = DMSO, 100% = 1 uM unlabeled human PCSK9. As for the experimental part:
The activity of cyclic polypeptides according to the disclosure as PCSK9 can be assessed using a time resolved fluorescence resonance energy transfer (TR-FRET) assay. This time resolved fluorescence resonance energy transfer (TR-FRET) assay measures the ability of a cyclic polypeptides of the disclosure to interfere with the binding of human PCSK9 to human LDLR, providing measures of both potency (IC50) and efficacy (Amax).
Solutions of varying concentrations are prepared by diluting a cyclic polypeptide of the disclosure in dimethylsulfoxide (DMSO) and the resulting solutions are pipetted into a plate. DMSO is used as a negative control. An intermediate plate is prepared in by transferring a known amount of each polypeptide solution and of the control from the compound plate into a corresponding well containing assay buffer and mixing thoroughly. A third plate is then prepared to be used for the assay by adding Human PCSK9 Alexa Fluor 647, followed by a known amount of each solution from the intermediate plate. Unlabeled human PCSK9 in assay buffer containing DMSO is used as a positive control for the assay. Following incubation, Human LDLR extracellular domain-Europium Kryptate is added to each well of the assay plate and the resulting mixture is incubated for an additional period of time. The TR-FRET signal is measured and the FRET ratio (FRET/Europium) is used to calculate the IC50 and Amax of the cyclic polypeptides.
The PCSK9 binding of the cyclic polypeptides of the disclosure were measured using a time resolved fluorescence resonance energy transfer (TR-FRET) assay. This time resolved fluorescence resonance energy transfer (TR-FRET) assay measures the ability of a cyclic polypeptide of the disclosure to interfere with the binding of human PCSK9 to human LDLR, providing measures of both potency (IC50) and efficacy (Amax).
• Human PCSK9 • Human PCSK9 Alexa Fluor 647 • Human LDLR extracellular domain-Europium Kryptate • Proxi plate-low volume assay plate (PerkinElmer #6008280) • Greiner V-bottom (Greiner BioOne #781280) • Assay Buffer • 20 mM HEPES, pH 7.5 • 150 mM NaCl • 1 mM CaCl2 • 0.01% v/v Tween20 • 0.01% w/v BSA
A master compound plate was prepared in a Greiner V bottom plate by diluting cyclic polypeptides of the disclosure in dimethylsulfoxide to the correct concentration for the desired top concentration based on the desired final concentration: for a 30 uM final concentration the master plate concentration is 1.5 mM (68 uL DMSO+12 uL 10 mM of a cyclic polypeptide of the disclosure), for a 10 uM final concentration the master plate concentration is 0.5 mM (76 uL DMSO+4 uL 10 mM of a cyclic polypeptide of the disclosure), for a 3 uM final concentration the master plate concentration is 150 uM (69 uL DMSO+1 uL 10 mM a cyclic peptide of the disclosure). These solutions were pipetted into columns 1 and 11 of the compound plate. Threefold serial dilutions were generated in columns 2-10 and 12-20 of the compound plate by transferring 10 uL into 20 μL of DMSO. Columns 21 and 22 of the compound plate were negative controls containing DMSO alone.
An intermediate plate was generated in a Greiner V bottom plate by transferring 8 uL from each well of the master plate into a corresponding well containing 92 μL of assay buffer and mixing thoroughly.
A Proxi plate-low volume assay plate was used for the assay. To all wells of the plate was added 10 μL of 16 nM Human PCSK9 Alexa Fluor 647, followed by 5 uL from the intermediate plate. […] Following a 30 minute incubation, 5 μL of 4 nM Human LDLR extracellular domain-Europium Kryptate was added and the mixture was incubated for an additional 2 hours.
The TR-FRET signal was measured on an EnVision or PheraStar instrument with a […] delay, 330 nm excitation and 665 nm emission (FRET), and 330 nm excitation and 615 nm (Europium). The FRET ratio (FRET/Europium) was used for calculations. […]
(In general: In TR-FRET formats the signal depends on donor and acceptor labels being close together.)
On to `CC(C)[C@@H]1NC(=O)[C@H](Cc2ccccc2)NC(=O)CSC[C@@H](C(=O)NCC(N)=O)NC(=O)[C@@H]2CCCN2C(=O)[C@H](CO)NC(=O)[C@H](CCC(=O)O)NC(=O)[C@H](C)N(C)C(=O)[C@H](Cc2ccc(-c3ccccc3)cc2)NC(=O)[C@H](Cc2ccccc2)N(C)C(=O)[C@H](CO)NC(=O)[C@H]([C@@H](C)O)NC(=O)[C@H]([C@@H](C)O)NC(=O)[C@H](CO)NC1=O` [Example 1-12, Ac*-F-V-S-T-T-S-(N-Me)F-B-(N-Me)A-E-S-P-C*-G-NH2] ({CH2CO}-FVSTTS[NMeF][Bip][NMeA]ESPCG-NH2; thioether N-13), for which the Maximum % inhibition is recorded as 87%.

`CC(C)[C@@H]1NC(=O)[C@H](Cc2ccccc2)NC(=O)CSC[C@@H](C(=O)NCC(N)=O)NC(=O)[C@@H]2CCCN2C(=O)[C@H](CO)NC(=O)[C@H](CCC(=O)O)NC(=O)[C@H](C)N(C)C(=O)[C@H](Cc2ccc(-c3ccccc3)cc2)NC(=O)[C@H](Cc2ccccc2)N(C)C(=O)[C@H](Cc2ccc(-c3ccccc3)cc2)NC(=O)[C@H]([C@@H](C)O)NC(=O)[C@H]([C@@H](C)O)NC(=O)[C@H](CO)NC1=O` [Example 1-13, Ac*-F-V-S-T-T-B-(N-Me)F-B-(N-Me)A-E-S-P-C*-G-NH2] ({CH2CO}-FVSTT[Bip][NMeF][Bip][NMeA]ESPCG-NH2; thioether N-13) gave a Maximum % inhibition of 86%.

Turning to `CC(C)[C@@H]1NC(=O)[C@H](Cc2ccccc2)NC(=O)CSC[C@@H](C(=O)NCC(N)=O)NC(=O)[C@@H]2CCCN2C(=O)[C@H](CCCNC(=N)N)NC(=O)[C@H](CC(=O)O)NC(=O)[C@H](C)N(C)C(=O)[C@H](Cc2ccc(Cl)c(Cl)c2)NC(=O)[C@H](C)N(C)C(=O)[C@H](Cc2ccc(-c3ccccc3)cc2)NC(=O)[C@H]([C@@H](C)O)NC(=O)[C@H]([C@@H](C)O)NC(=O)[C@H](CO)NC1=O` [Example 1-14, Ac*-F-V-S-T-T-B-(N-Me)A-(3,4-diCl)F-(N-Me)A-D-R-P-C*-G-NH2] ({CH2CO}-FVSTT[Bip][NMeA][Phe(3,4-Cl2)][NMeA]DRPCG-NH2; thioether N-13), the Maximum % inhibition was 49%.

The compound `CC(C)[C@@H]1NC(=O)[C@H](Cc2ccccc2)NC(=O)CSC[C@@H](C(=O)NCC(N)=O)NC(=O)[C@@H]2CCCN2C(=O)[C@H](CCCNC(=N)N)NC(=O)[C@H](CC(=O)O)NC(=O)[C@H](C)N(C)C(=O)[C@H](Cc2cccc(F)c2)NC(=O)[C@H](C)N(C)C(=O)[C@H](Cc2ccc(-c3ccccc3)cc2)NC(=O)[C@H]([C@@H](C)O)NC(=O)[C@H]([C@@H](C)O)NC(=O)[C@H](CO)NC1=O` [Example 1-15, Ac*-F-V-S-T-T-B-(N-Me)A-(3-F)F-(N-Me)A-D-R-P-C*-G-NH2] ({CH2CO}-FVSTT[Bip][NMeA][Phe(3-F)][NMeA]DRPCG-NH2; thioether N-13) displayed a Maximum % inhibition of 53%.

As for `CC(C)[C@@H]1NC(=O)[C@H](Cc2ccccc2)NC(=O)CSC[C@@H](C(=O)NCC(N)=O)NC(=O)[C@@H]2CCCN2C(=O)[C@H](C)NC(=O)[C@H](CCC(=O)O)NC(=O)[C@H](C)N(C)C(=O)[C@H](Cc2ccc(-c3ccccc3)cc2)NC(=O)[C@H](Cc2ccccc2)N(C)C(=O)[C@H](C)NC(=O)[C@H]([C@@H](C)O)NC(=O)[C@H]([C@@H](C)O)NC(=O)[C@H](CC(=O)O)NC1=O` [Example 1-16, Ac*-F-V-D-T-T-A-(N-Me)F-B-(N-Me)A-E-A-P-C*-G-NH2] ({CH2CO}-FVDTTA[NMeF][Bip][NMeA]EAPCG-NH2; thioether N-13), the Maximum % inhibition turned out to be 91%.

`CC(C)[C@@H]1NC(=O)[C@H](Cc2ccccc2)NC(=O)CSC[C@@H](C(=O)NCC(N)=O)NC(=O)[C@@H]2CCCN2C(=O)[C@H](CO)NC(=O)[C@H](CCC(=O)O)NC(=O)[C@H](C)N(C)C(=O)[C@H](Cc2ccc(-c3ccccc3)cc2)NC(=O)[C@H](C)N(C)C(=O)[C@H](Cc2ccccc2)NC(=O)[C@H]([C@@H](C)O)NC(=O)[C@H]([C@@H](C)O)NC(=O)[C@H](CC(=O)O)NC1=O` [Example 1-17, Ac*-F-V-D-T-T-F-(N-Me)A-B-(N-Me)A-E-S-P-C*-G-NH2] ({CH2CO}-FVDTTF[NMeA][Bip][NMeA]ESPCG-NH2; thioether N-13): the Maximum % inhibition is given as 91%.

In the case of `CC(C)[C@@H]1NC(=O)[C@H](Cc2ccccc2)NC(=O)CSC[C@@H](C(=O)NCC(N)=O)NC(=O)[C@@H]2CCCN2C(=O)[C@H](C)NC(=O)[C@H](CCC(N)=O)NC(=O)[C@H](C)N(C)C(=O)[C@H](Cc2ccc(-c3ccccc3)cc2)NC(=O)[C@H](Cc2ccccc2)N(C)C(=O)[C@H](C)NC(=O)[C@H]([C@@H](C)O)NC(=O)[C@H]([C@@H](C)O)NC(=O)[C@H](CC(N)=O)NC1=O` [Example 1-18, Ac*-F-V-N-T-T-A-(N-Me)F-B-(N-Me)A-Q-A-P-C*-G-NH2] ({CH2CO}-FVNTTA[NMeF][Bip][NMeA]QAPCG-NH2; thioether N-13), the Maximum % inhibition was found to be 53%.

Compound `CC(C)[C@@H]1NC(=O)[C@H](Cc2ccccc2)NC(=O)CSC[C@@H](C(=O)NCC(N)=O)NC(=O)[C@@H]2CCCN2C(=O)[C@H](CCCNC(=N)N)NC(=O)[C@H](CC(=O)O)NC(=O)[C@H](C)N(C)C(=O)[C@H](Cc2ccc(-c3ccccc3)cc2)NC(=O)[C@H](C)N(C)C(=O)[C@H](Cc2ccc(-c3ccccc3)cc2)NC(=O)[C@H]([C@@H](C)O)NC(=O)[C@H]([C@@H](C)O)NC(=O)[C@@H]2CCCN2C1=O` [Example 1-19, Ac*-F-V-P-T-T-B-(N-Me)A-B-(N-Me)A-D-R-P-C*-G-NH2] ({CH2CO}-FVPTT[Bip][NMeA][Bip][NMeA]DRPCG-NH2; thioether N-13) displayed a Maximum % inhibition of 38%.

The compound `CC(C)[C@@H]1NC(=O)[C@H](Cc2ccccc2)NC(=O)CSC[C@@H](C(=O)NCC(N)=O)NC(=O)[C@@H]2CCCN2C(=O)[C@H](CO)NC(=O)[C@@H]2CCCN2C(=O)[C@H](C)N(C)C(=O)[C@H](Cc2ccc(-c3ccccc3)cc2)NC(=O)[C@H](C)N(C)C(=O)[C@H](Cc2ccc(-c3ccccc3)cc2)NC(=O)[C@H]([C@@H](C)O)NC(=O)[C@H]([C@@H](C)O)NC(=O)[C@H](CO)NC1=O` [Example 1-20, Ac*-F-V-S-T-T-B-(N-Me)A-B-(N-Me)A-P-S-P-C*-G-NH2] ({CH2CO}-FVSTT[Bip][NMeA][Bip][NMeA]PSPCG-NH2; thioether N-13) displayed a Maximum % inhibition of 35%.

`CC(C)[C@@H]1NC(=O)[C@H](Cc2ccccc2)NC(=O)CSC[C@@H](C(=O)NCC(N)=O)NC(=O)[C@@H]2CCCN2C(=O)[C@H](C)NC(=O)[C@H](CCC(=O)O)NC(=O)[C@H](C)N(C)C(=O)[C@H](Cc2ccc(-c3ccccc3)cc2)NC(=O)[C@H](Cc2ccccc2)N(C)C(=O)[C@H](C)NC(=O)[C@H]([C@@H](C)O)NC(=O)[C@H]([C@@H](C)O)NC(=O)[C@@H]2CCCN2C1=O` [Example 1-21, Ac*-F-V-P-T-T-A-(N-Me)F-B-(N-Me)A-E-A-P-C*-G-NH2] ({CH2CO}-FVPTTA[NMeF][Bip][NMeA]EAPCG-NH2; thioether N-13) displayed a Maximum % inhibition of 81%.

Regarding `CC(C)[C@@H]1NC(=O)[C@H](Cc2ccccc2)NC(=O)CSC[C@@H](C(=O)NCC(N)=O)NC(=O)[C@@H]2CCCN2C(=O)[C@H](C)NC(=O)[C@H](CCCCN)NC(=O)[C@H](C)N(C)C(=O)[C@H](Cc2ccc(-c3ccccc3)cc2)NC(=O)[C@H](C)N(C)C(=O)[C@H](Cc2ccccc2)NC(=O)[C@H]([C@@H](C)O)NC(=O)[C@H]([C@@H](C)O)NC(=O)[C@H](C)NC1=O` [Example 1-22, Ac*-F-V-A-T-T-F-(N-Me)A-B-(N-Me)A-K-A-P-C*-G-NH2] ({CH2CO}-FVATTF[NMeA][Bip][NMeA]KAPCG-NH2; thioether N-13), the Maximum % inhibition is reported as 49%.

The same test, now with this note: TR-FRET; Human PCSK9 Alexa Fluor 647 and Human LDLR extracellular domain-Europium Kryptate.
As for `CC(C)[C@@H]1NC(=O)[C@H](Cc2ccccc2)NC(=O)CSC[C@@H](C(=O)NCC(N)=O)NC(=O)[C@@H]2CCCN2C(=O)[C@H](CCCNC(=N)N)NC(=O)[C@H](CC(=O)O)NC(=O)[C@H](C)N(C)C(=O)[C@H](Cc2cccc(F)c2)NC(=O)[C@H](C)N(C)C(=O)[C@H](Cc2ccc(-c3ccccc3)cc2)NC(=O)[C@H]([C@@H](C)O)NC(=O)[C@H]([C@@H](C)O)NC(=O)[C@H](CO)NC1=O` [Example 1-15, Ac*-F-V-S-T-T-B-(N-Me)A-(3-F)F-(N-Me)A-D-R-P-C*-G-NH2] ({CH2CO}-FVSTT[Bip][NMeA][Phe(3-F)][NMeA]DRPCG-NH2; thioether N-13), the IC50 is 0.012 µM.

Turning to `CC(C)[C@@H]1NC(=O)[C@H](Cc2ccccc2)NC(=O)CSC[C@@H](C(=O)NCC(N)=O)NC(=O)[C@@H]2CCCN2C(=O)[C@H](C)NC(=O)[C@H](CCCCN)NC(=O)[C@H](C)N(C)C(=O)[C@H](Cc2ccc(-c3ccccc3)cc2)NC(=O)[C@H](C)N(C)C(=O)[C@H](Cc2ccccc2)NC(=O)[C@H]([C@@H](C)O)NC(=O)[C@H]([C@@H](C)O)NC(=O)[C@H](C)NC1=O` [Example 1-22, Ac*-F-V-A-T-T-F-(N-Me)A-B-(N-Me)A-K-A-P-C*-G-NH2] ({CH2CO}-FVATTF[NMeA][Bip][NMeA]KAPCG-NH2; thioether N-13), the IC50 amounted to 0.012 µM.
